Measured values reported in patent US6818407B2, “Anti-endotoxic antimicrobial cationic peptides and methods of use therfor” (priority 1998, dated 2004).
Marks after values point to notes of the source that are not given here. Ends that are not written are not given here.

Tests used:
V. anguillarum [1] = test: Protection of coho salmon, peptide delivered constantly by intraperitoneal mini-osmotic pump; assay type: in vivo, juvenile coho salmon; details: CEME by intraperitoneal mini-osmotic pump; control group 50%
Experimental: Constant delivery of peptide P-CN using intraperitoneal mini-osmotic pumps was carried out. Briefly, juvenile coho salmon were divided into three treatment groups: A. Bacterial injection alone (12 fish). B. Fish saline osmotic pump and bacterial injection (12 fish). C. A combination of P-CN osmotic pump and bacterial injection (19 fish). The fish were anaesthetized and implanted (peritoneal cavity) with mini-osmotic pumps having a pumping rate of 0.13 µl/hour. Heaters were placed in the tanks to keep the water temperature between 12 and 13° C. Pumps were filled with concentrated P-CN to deliver approximately […] peptide to fish over a 30-day period. Twelve days after pump implantation, the fish received intraperitoneal injections of V. anguillarum ([…]). Mortalities were first noticed on day 3 for the group injected with bacteria alone and on day 5 for the group which received saline osmotic pumps as well as bacterial injections. However, there was no significant difference in mortality between the bacterial injection alone group and the saline osmotic pump group (67% vs. 75%). Mortalities were delayed for the P-CN osmotic pump group. The P-CN osmotic pump group had only one fish die on day 6 over the 30 days experiments with an accumulated mortality of 5%. […] Furthermore, since cationic peptides are not effective in a single treatment and constant administration is necessary, this argues for the potential success of transgenic fish expressing peptide P-CN.
(§1) Fish loss from disease is a significant problem in aquaculture worldwide. However, expression of natural cationic peptide genes in fish could increase disease resistance because of continual cellular production of the antimicrobial peptides. In order to choose optimal peptides for transgenic fish, the antimicrobial activities of some cationic peptides were determined by testing minimum inhibitory concentrations (MICs) in vitro. […] The in vivo effect of CEME was examined by intraperitoneal injection of the peptide along with V. anguillarum into juvenile coho salmon. Fish in the bacteria alone control group had 60% mortality, while fish receiving peptide and bacteria injections had 82% mortality. […] Therefore, constant delivery of CEME and Pleurocidin-CN using intraperitoneal mini-osmotic pumps were carried out. Twelve days after pump implantation, the fish received intraperitoneal injections of V. anguillarum. The CEME and pleurocidin-CN pump group had longer survival time and lower mortalities than the control groups (50% Vs. 13%, and 75% Vs. 5%, respectively). Indolicidin transgenic cutthroat trout were made using a construct including an MT promoter, growth hormone signal, pre-region, indolicidin, and terminator. […]

V. anguillarum [2] = test: Single intraperitoneal injection of peptide along with V. anguillarum into juvenile coho salmon; assay type: in vivo; details: single injection of peptide along with bacteria; bacteria alone control 60%
Experimental: as §1, with “terminator. Transgenic individuals were identified by serum analysis using PCR with construct-specific oligonucleotide primers.” for “terminator.”

[3] = Lethal endotoxemia in galactosamine-sensitized mice; assay type: in vivo, CD-1 mice; details: peptide 200 μg intraperitoneal within 10 min of 10 μg LPS; 24 hours post injection; 5 mice per group; no peptide 100
Experimental: To confirm this in vivo, endotoxic shock was induced by intraperitoneal injection of 10 μg of E.coli 0111:B4 LPS in phosphate-buffered saline (PBS; pH 7.2) into galactosamine-sensitized 8- to 10- week old female CD-1 mice (5 per group). In experiments involving peptides, 200 μg in 100 μl of sterile water was injected at separate intraperitoneal sites within 10 min of LPS injection. Survival was monitored at 24 hours post injection.

[4] = tested on: Pseudomonas aeruginosa strain M2; test: Protection of neutropenic CD-1 mice challenged with Pseudomonas aeruginosa; assay type: in vivo; set-up: Survival post bacterial challenge, surviving mice: reference not given here; details: for Survival (%) post bacterial challenge: PBS 8
Summary of the method: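 Neutropenia induced by three i.p. cyclophosphamide doses ([…], alternate days); mice then infected i.p. with 200-300 organisms/mouse. Peptides (200 µg/mouse = 8 mg/kg) in buffered citrate given i.p. at 30 min (single) or 30 min and 16 hrs (double) post-challenge; PBS control; mean of 2 experiments.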

Salmonella typhi = test: Synergy study (checkerboard titration) with hen white lysozyme; assay type: cell-based
E. coli [5] = test: as above; assay type: cell-based
P. aeruginosa (H103) = test: as above; assay type: cell-based
E. coli [6] = test: MIC, broth microdilution assay in polypropylene microtiter trays; assay type: cell-based; details: average of three separate experiments
Summary of the method: (§2)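 Optical density is followed over a fixed period for each peptide concentration, and the lowest concentration with no OD change is recorded as the MIC.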

S. aureus K147 = test: as above; assay type: cell-based; details: average of three separate experiments
Summary of the method: as §2

P. aeruginosa = test: as above; assay type: cell-based; details: average of three separate experiments
Summary of the method: as §2

S. epidermis = test: as above; assay type: cell-based; details: average of three separate experiments
Summary of the method: as §2

S. aureus = test: as above; assay type: cell-based; details: average of three separate experiments
Summary of the method: as §2

[7] = tested on: β-lactamase derepressed mutant (H547) of P. aeruginosa; test: microbe, parasite or virus in culture; assay type: cell-based; details: P. aeruginosa H547
Summary of the method: (§3)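 Checkerboard titration in Mueller Hinton broth, peptide against carbenicillin or ciprofloxacin, inoculum 10 μl of 10^−4 dilution of overnight culture, 18-24 h at 37 °C. Combination MIC is the lowest concentration reducing growth >50%. FIC index = A/MIC A + B/MIC B, with ≤~0.5 synergy, 1.0 additivity, >1.0 antagonism.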

[8] = tested on: mutant (Nal B, H744) of P. aeruginosa; test: microbe, parasite or virus in culture; assay type: cell-based
Summary of the method: as §3

[9] = tested on: Pseudomonas aeruginosa PAO; test: Chronic Pseudomonas aeruginosa lung infection in rats, aerosol treatment; assay type: in vivo; details: lungs, quantitative culture; aerosol 10 ml of 5 mg/ml once daily for three days; untreated control 1.2 × 10^6
Experimental: Fifteen animals were utilized in these experiments (5 animals in each of three groups). All animals were inoculated intratracheal with 10^4 Pseudomonas aeruginosa PAO in agar beads. Three days following inoculation, rats were exposed to aerosol preparations from and Aero-Tech II nebulizer (CIS-US, Bedford, Mass.). The nebulizer was operated at 45 psi, with a flow rate of 10 L/min and contained 10 ml of the preparation to be aerosolized. The 10 ml volume was dispensed in 25-30 minutes. Animals were treated once daily for three days; control animals received daily exposure to 10 mls of 10 mM sodium citrate (pH 7.0); one treatment group received daily exposure to 10 mls of 10 mM sodium citrate (pH 7.0) containing 5 mg/ml of CM3; one treatment group received daily exposure to 10 mls of 10 mM sodium citrate (pH 7.0) containing 5 mg/ml of Cpα2. Animals were sacrificed on day 3, at one hour following the last exposure. The lungs of the treatment and control animals were removed for quantitative culture.

[10] = cationic peptide concentration, combined with lysozyme
[11] = lysozyme concentration, combined with the peptide

CC[C@H](C)[C@H](NC(=O)CNC(=O)[C@@H](NC(=O)[C@H](CCCCN)NC(=O)[C@H](CCCCN)NC(=O)[C@H](Cc1ccccc1)NC(=O)[C@H](CC(C)C)NC(=O)[C@H](CCCCN)NC(=O)[C@H](Cc1c[nH]c2ccccc12)NC(=O)[C@@H](N)CCCCN)[C@@H](C)CC)C(=O)NCC(=O)N[C@@H](C)C(=O)N[C@H](C(=O)N[C@@H](CC(C)C)C(=O)N[C@@H](CCCCN)C(=O)N[C@H](C(=O)N[C@@H](CC(C)C)C(=O)N[C@H](C(=O)N[C@H](C(=O)NCC(=O)N[C@@H](CC(C)C)C(=O)N1CCC[C@H]1C(=O)N[C@@H](C)C(=O)N[C@@H](CC(C)C)C(=O)N[C@H](C(=O)N[C@@H](CO)C(=O)O)[C@@H](C)CC)[C@@H](C)O)[C@@H](C)O)C(C)C)C(C)C [CEME, reference compound]
Mortality, pump group (V. anguillarum [1]): 13% | Mortality (V. anguillarum [2]): 82%

KWKKFIKSLTKSAAKTVVKTAKKPLIV [CM3]
Mortality (%) [3]: 80% | Survival post bacterial challenge, surviving mice ([4]; double dose (200 μg per mouse i.p. at 30 min and 16 hrs), 16 hr): 13 | Survival post bacterial challenge, surviving mice ([4]; double dose, 24 hr): 13 | Survival post bacterial challenge, surviving mice ([4]; double dose, 41 hr): 11 | Survival post bacterial challenge, surviving mice ([4]; double dose, 48 hr): 11 | Survival post bacterial challenge, surviving mice ([4]; double dose, 64 hr): 10 | Survival (%) post bacterial challenge ([4]; double dose, 64 hr): 76% | Survival post bacterial challenge, surviving mice ([4]; double dose, 72 hr): 10 | Survival (%) post bacterial challenge ([4]; double dose, 72 hr): 76% | Survival post bacterial challenge, surviving mice ([4]; double dose, 96 hr): 8 | Survival (%) post bacterial challenge ([4]; double dose, 96 hr): 61% | Survival post bacterial challenge, surviving mice ([4]; single dose (200 μg per mouse i.p. at 30 min), 16 hr): 15 | Survival post bacterial challenge, surviving mice ([4]; single dose, 24 hr): 15 | Survival post bacterial challenge, surviving mice ([4]; single dose, 41 hr): 14 | Survival post bacterial challenge, surviving mice ([4]; single dose, 48 hr): 13 | Survival post bacterial challenge, surviving mice ([4]; single dose, 64 hr): 12 | Survival (%) post bacterial challenge ([4]; single dose, 64 hr): 80% | Survival post bacterial challenge, surviving mice ([4]; single dose, 72 hr): 11 | Survival (%) post bacterial challenge ([4]; single dose, 72 hr): 73% | Survival post bacterial challenge, surviving mice ([4]; single dose, 96 hr): 11 | Survival (%) post bacterial challenge ([4]; single dose, 96 hr): 73% | FIC for combination of cationic peptide and lysozyme (Salmonella typhi): 0.75 | Lowest [CP] showing synergy (Salmonella typhi; [10]): 2.61 µg/mL | Lowest [Lyso] showing synergy (Salmonella typhi; [11]): 250 µg/mL | FIC for combination of cationic peptide and lysozyme (E. coli [5]): 0.31 | Lowest [CP] showing synergy (E. coli [5]; [10]): 0.041 µg/mL | Lowest [Lyso] showing synergy (E. coli [5]; [11]): 15.6 µg/mL | FIC for combination of cationic peptide and lysozyme (P. aeruginosa (H103)): 0.50 | Lowest [CP] showing synergy (P. aeruginosa (H103); [10]): 1.3 µg/mL | Lowest [Lyso] showing synergy (P. aeruginosa (H103); [11]): 15.6 µg/mL | MIC E. coli (E. coli [6]): 1 µg/mL | MIC S. aureus K147 (S. aureus K147): >64 µg/mL | MIC P. aeruginosa (P. aeruginosa): 5 µg/mL | MIC S. epidermis (S. epidermis): 16 µg/mL | MIC S. aureus (S. aureus): >64 µg/mL | (B) MIC of Carb when combined with peptide ([7]; Carbenicillin with peptide at concentration (A)): 32 µg/mL | FIC index ([7]; peptide + Carbenicillin, about 0.5 or less synergy, 1.0 additivity, >1.0 antagonism): 0.75 | MIC A MIC of Peptides ([7]; peptide alone): 2 µg/mL | (A) Peptide doses together with Carb ([7]; peptide concentration in combination with Carbenicillin): .5 µg/mL | MIC A MIC of Peptides ([8]; peptide alone, P. aeruginosa mutant Nal B, H744 (Table 5)): 2 µg/mL | (A) Peptide doses together with Cipro ([8]; peptide concentration in combination with ciprofloxacin, Nal B, H744): .5 µg/mL | Mean Colony Forming Units +/− S.D. [9]: 7.4 × 10^4 +/− 6.7 × 10^4* CFU
